Measured values reported in patent US20030109583A1 (priority 2001, published 2003).
Where two headings read alike, the source gives them in different places.

Legend:
E. faecium = assay: in vitro MIC assay; type: cell-based; conditions: activity = MIC<128 μg/ml
Description: (§1) The ability of negamycin or deoxynegamycin, or pharmaceutically acceptable salts, prodrugs or isomers thereof, to treat bacterial infection was measured by in vitro assay described below. The compounds were kept in DMSO at 10 mg/ml and diluted into the test medium for the assay.
(§2) The strains used for assaying negamycin include the following: Acinetobacter baumanii, Citrobacter freundii, Enterobacter aerogenes, Haemophilus influenzae, Moraxella catarrhalis, Staphylococcus aureus MRSA, Staphylococcus aureus GISA, Staphylococcus epidermis, Streptococcus pneumoniae PenR, Streptococcus pneumoniae PenS, Streptococcus pyogenes, Helicobacter pylori and E. faecium. The strains used for assaying deoxynegamycin include the following: Haemophilus influenzae, Staphylococcus aureus MRSA, Staphylococcus aureus GISA, Staphylococcus epidermis, Streptococcus pneumoniae PenR, Streptococcus pneumoniae PenS, Streptococcus pyogenes and E. facium.
(§3) (1) Liquid Medium, Nutrient Broth and Mueller-Hinton Broth with 50% Human Serum
(§4) Compounds were suspended in a DMSO solution containing 10 mg/ml of compound. The appropriate amount of compound was added to a well of the first column of a 96-well microtiter plate containing 100 μl of Nutrient Broth (NB) or Mueller-Hinton Broth with 50% human serum (MHB+HS), for S. pneumoniae the NB medium was supplemented with 3 or 5% lysed horse blood. The rest of the wells in the row had 50 μl of the same medium in each well. After adding the compound to the first well and mixing thoroughly, 50 μl was taken out, and mixed to the second well of the row. This operation was repeated until the well of column 11 was reached and, after mixing, 50 μl were discarded. […] A concentration gradient of two-fold dilution was achieved by this method. A distinct compound was added to the first column well of the next row of the microtiter plate, and the procedure was repeated until all the rows are used. The plate was then ready for inoculation.
(§5) Bacterial strains were inoculated from a frozen stock on Mueller-Hinton Agar (Difco) or Blood Agar for S. pneumoniae and grown at 35° C. overnight. Cells were suspended in sterile saline to 0.5 McFarland standard. The inoculum was diluted approximately 1:1000 in the appropriate medium to reach an inoculum size of 10^5 cfu/ml (NB, NB supplemented with 3 or 5% lysed horse blood for S. pneumoniae, or MHB+HS). The diluted cell suspension was used to inoculate the microtiter plate containing two-fold dilution of the test compound. Each well of the microtiter plate received 50 μl of the cell suspension. The final volume was 100 μl (50 μl from the inoculum and 50 μl of the medium containing the compound).
(§6) The plates were incubated at 35° C. for 16 to 20 hours, the minimal inhibitory concentration (MIC) was recorded and was defined as the lowest concentration of compound that there is no visible growth.
(§7) (2) Solid Medium, Mueller-Hinton Agar with 50% Human Serum
(§8) Compounds were suspended in a DMSO solution containing 10 mg/ml of compound. The appropriate amount of compound was added to melted Mueller-Hinton Agar with 50% human serum (MHA+HS) at 50° C. The medium has been prepared by adding human serum to a melted Mueller-Hinton Agar (MHA) at two fold the concentration. MHA+HS has 50% human serum and normal strength of MHA. The appropriate concentration of compound was added to 4 ml of melted MHA+HS, and poured in a 6 cm diameter petri dish, and the agar was allowed to solidify at room temperature. A set of petri dishes, each dish containing half the concentration of compound of the previously poured dish, was made and used to assess the MIC in solid medium.
(§9) Bacterial strains were inoculated from a frozen stock on Mueller-Hinton Agar (Difco) or Blood Agar for S. pneumoniae and grown at 35° C. overnight. Cells are suspended in sterile saline to 0.5 McFarland standard. The inoculum was diluted approximately 1:10 in sterile saline water to obtain a bacterial suspension at 10^7 cfu/ml. […]

Haemophilus influenzae = assay: in vitro MIC assay; type: cell-based; conditions: activity = MIC<128 μg/ml
Description: as §1, §2, §3, §4, §5, §6, §7, §8, §9

[1] = system: Staphylococcus aureus GISA; assay: in vitro MIC assay; type: cell-based; conditions: activity = MIC<128 μg/ml
Description: as §1, §2, §3, §4, §5, §6, §7, §8, §9

[2] = system: Staphylococcus aureus MRSA; assay: in vitro MIC assay; type: cell-based; conditions: activity = MIC<128 μg/ml
Description: as §1, §2, §3, §4, §5, §6, §7, §8, §9

Staphylococcus epidermis = assay: in vitro MIC assay; type: cell-based; conditions: activity = MIC<128 μg/ml
Description: as §1, §2, §3, §4, §5, §6, §7, §8, §9

[3] = system: Streptococcus pneumoniae PenR; assay: in vitro MIC assay; type: cell-based; conditions: activity = MIC<128 μg/ml
Description: as §1, §2, §3, §4, §5, §6, §7, §8, §9

[4] = system: Streptococcus pneumoniae PenS; assay: in vitro MIC assay; type: cell-based; conditions: activity = MIC<128 μg/ml
Description: as §1, §2, §3, §4, §5, §6, §7, §8, §9

Streptococcus pyogenes = assay: in vitro MIC assay; type: cell-based; conditions: activity = MIC<128 μg/ml
Description: as §1, §2, §3, §4, §5, §6, §7, §8, §9

[5] = system: Escherichia coli ATCC 25922; assay: mouse septicemia model; type: in vivo, ICR male mice; conditions: mortality recorded for 7 days, E. coli ATCC 25922 mouse septicemia
Description: (§10) Mice were inoculated intraperitoneally with 2×10^5 cfu/mouse in 0.5 ml of Brain-Heart Infusion broth supplemented with 5% mucin. The compound was tested at 40, 20, 10, 5 and 2.5 mg/kg orally (PO) or at 20, 10, 5 and 2.5 mg/kg intravenously (IV) at 1 and 5 hours after bacterial inoculation. Controls included vehicle control (0.9% NaCl, 10 ml/kg) and an antibiotic control with ampicillin. Mortality was recorded for 7 days, and an ED50 was determined by non-linear regression.

Staphylococcus aureus = conditions: cited from earlier work
Escherichia coli = conditions: cited from earlier work
Shigella flexneri = conditions: cited from earlier work
Salmonella typhi = conditions: cited from earlier work
Salmonella typhimurium = conditions: cited from earlier work
Salmonella enteriditis = conditions: cited from earlier work
Enterobacter sp. = conditions: cited from earlier work
Klebsiella pneumoniae = conditions: cited from earlier work
Serratia marcescens = conditions: cited from earlier work
Herellea vaginicola = conditions: cited from earlier work
Proteus vulgaris = conditions: cited from earlier work
Proteus rettgeri = conditions: cited from earlier work
Pseudomonas aeruginosa = conditions: cited from earlier work
Pseudomonas fluorescens = conditions: cited from earlier work
Mycobacterium smegmatis = conditions: cited from earlier work
Enterobacter aerogenes [6] = conditions: cited from earlier work
Proteius mirabilis = conditions: cited from earlier work
Candida albicans = conditions: cited from earlier work
Cryptococcus neoformans = conditions: cited from earlier work
Trichophyton tonsurans = conditions: cited from earlier work
[7] = system: Trichophyton mentagraphytes; conditions: cited from earlier work
Acinetobacter baumanii = assay: in vitro MIC assay; type: cell-based; conditions: Acinetobacter baumannii, activity = MIC<128 μg/ml
Description: as §1, §2, §3, §4, §5, §6, §7, §8, §9

Citrobacter freundii = assay: in vitro MIC assay; type: cell-based; conditions: activity = MIC<128 μg/ml
Description: as §1, §2, §3, §4, §5, §6, §7, §8, §9

Enterobacter aerogenes [8] = assay: in vitro MIC assay; type: cell-based; conditions: Klebsiella aerogenes, activity = MIC<128 μg/ml
Description: as §1, §2, §3, §4, §5, §6, §7, §8, §9

Helicobacter pylori = assay: in vitro MIC assay; type: cell-based; conditions: activity = MIC<128 μg/ml
Description: as §1, §2, §3, §4, §5, §6, §7, §8, §9

Moraxella catarrhalis = assay: in vitro MIC assay; type: cell-based; conditions: activity = MIC<128 μg/ml
Description: as §1, §2, §3, §4, §5, §6, §7, §8, §9

S. Aureus = assay: ED50 against S. Aureus; type: in vivo; conditions: Staphylococcus aureus, route not stated
Description: as §10

[9] = kept at 37° C. for one month, cited from earlier work
Shigella sonnei = conditions: cited from earlier work
Salmonella typhosa = conditions: cited from earlier work
[10] = ATCC25922, intravenously (IV) at 1 and 5 hours after inoculation
[11] = ATCC25922, orally (PO) at 1 and 5 hours after inoculation

Row | Structure (SMILES) | MIC (E. faecium) | ED50 [5, 10] | reported as effective against organism (Staphylococcus aureus) | reported as effective against organism (Escherichia coli) | reported as effective against organism (Shigella flexneri) | reported as effective against organism (Salmonella typhi) | reported as effective against organism (Salmonella typhimurium) | reported as effective against organism (Salmonella enteriditis) | reported as effective against organism (Enterobacter sp.) | reported as effective against organism (Klebsiella pneumoniae) | reported as effective against organism (Serratia marcescens) | reported as effective against organism (Herellea vaginicola) | reported as effective against organism (Proteus vulgaris) | reported as effective against organism (Proteus rettgeri) | reported as effective against organism (Pseudomonas aeruginosa) | reported as effective against organism (Pseudomonas fluorescens) | reported as effective against organism (Mycobacterium smegmatis) | ED50 [5, 11] | also measured
1 | CN(CC(=O)O)NC(=O)C[C@H](N)CCCN [Deoxynegamycin, D-3,6-diaminiohexanoic acid-2-(carboxymethyl)-2-methylhyrazide] | inactive | 4.8 mg/kg | effective | effective | effective | effective | effective | effective | effective | effective | effective | effective | effective | effective | effective | effective | effective |  | MIC (Haemophilus influenzae): exhibited activity; MIC [1]: exhibited activity; MIC [2]: exhibited activity; MIC (Staphylococcus epidermis): exhibited activity; MIC [3]: exhibited activity; MIC [4]: exhibited activity; MIC (Streptococcus pyogenes): exhibited activity; reported as effective against organism (Enterobacter aerogenes [6]): effective; reported as effective against organism (Proteius mirabilis): effective; reported as effective against organism (Candida albicans): effective; reported as effective against organism (Cryptococcus neoformans): effective; reported as effective against organism (Trichophyton tonsurans): effective; reported as effective against organism [7]: effective
2 | CN(CC(=O)O)NC(=O)C[C@H](N)C[C@@H](O)CN [Negamycin, [2-{(3R,5R)-3,6-diamino-5-hydroxyhexanoyl}-1-methylhydrazino]acetic acid] | inactive | 4.1 mg/kg | effective | effective | effective | effective | effective | effective | effective | effective | effective | effective | effective | effective | effective | effective | effective | 15.1 mg/kg | MIC (Acinetobacter baumanii): < 128 µg/mL; MIC (Citrobacter freundii): < 128 µg/mL; MIC (Enterobacter aerogenes [8]): < 128 µg/mL; MIC (Haemophilus influenzae; read-out: MIC): < 128 µg/mL; MIC (Helicobacter pylori): < 128 µg/mL; MIC (Moraxella catarrhalis): < 128 µg/mL; MIC ([1]; read-out: MIC): < 128 µg/mL; MIC ([2]; read-out: MIC): < 128 µg/mL; MIC (Staphylococcus epidermis; read-out: MIC): < 128 µg/mL; MIC ([3]; read-out: MIC): < 128 µg/mL; MIC ([4]; read-out: MIC): < 128 µg/mL; MIC (Streptococcus pyogenes; read-out: MIC): < 128 µg/mL; ED50 (S. Aureus): 16.8 mg/kg; activity reduced to ([9]; in 0.02N HCl aqueous solution): 50%; activity reduced to ([9]; in aqueous solution): 63%; reported as effective against organism (Shigella sonnei): effective; reported as effective against organism (Salmonella typhosa): effective
3 | CC1(C)S[C@@H]2[C@H](NC(=O)[C@H](N)c3ccccc3)C(=O)N2[C@H]1C(=O)O [Ampicillin, reference compound] |  | 6.8 mg/kg |  |  |  |  |  |  |  |  |  |  |  |  |  |  |  | 27.6 mg/kg | 
